Measurements reported in patent publication US6620397B2, “Material and method for treating photographic effluents” (Eastman Kodak Company, priority 2001, dated 2003).

Test: Oxidation of cyclohexene to cyclohexanol followed by FT Raman spectroscopy
Experimental: When no imogolite was present in the test the volume of imogolite was replaced by an equivalent volume of water so as to retain a constant volume. The oxidation of the cyclohexene was followed by FT (Fourier transform) Raman spectroscopy by measuring the percentage of cyclohexene converted to cyclohexanol after 48 hours. The tests were carried out at ambient temperature.

With OO [Example 13, hydrogen peroxide] the “Cyclohexene oxidized after 48 h (%)” value (5 g material, 20 ml cyclohexene in 80 ml methanol, ambient temperature, 48 hours) was 3% and the “Oxidizing property towards cyclohexene (in words)” value (summary of Table I) was “weak oxidizing agent”.
